# Values quoted from earlier work, collected in article PMC11876601 (Molecular Systems Biology, 2025).
# Where two headings read alike, the source gives them in different places.
# What was measured:
# ERN1 = settings: cited from earlier work
# LATS1 = settings: cited from earlier work
# MARK3 = settings: cited from earlier work
# AURKB = settings: cited from earlier work
# STK10 = settings: cited from earlier work
# CHEK1 = settings: cited from earlier work; for Kd: read-out: KDapp
# FLT3 = settings: cited from earlier work
# AURKA = settings: cited from earlier work
# Q6ZSR9 = settings: cited from earlier work
# BMP2K = settings: cited from earlier work
# PLK4 = settings: cited from earlier work
# SYK = settings: cited from earlier work
# RET = settings: cited from earlier work
# [1] = ERN1, 5 cell line mix lysate, Kinobeads ε, ref Reinecke et al. (2023)
# [2] = LATS1, 5 cell line mix lysate, Kinobeads ε, ref Reinecke et al. (2023)
# [3] = MARK3, 5 cell line mix lysate, Kinobeads ε, ref Reinecke et al. (2023)
# [4] = 5 cell line mix lysate, Kinobeads ε, ref Reinecke et al. (2023), read-out: KDapp
# [5] = 5 cell line mix lysate, Kinobeads ε, ref Reinecke et al. (2023)
# [6] = STK10, 5 cell line mix lysate, Kinobeads ε, ref Reinecke et al. (2023)
# [7] = CHEK1, 5 cell line mix lysate, Kinobeads ε, ref Reinecke et al. (2023)
# [8] = FLT3, 5 cell line mix lysate, Kinobeads ε, ref Reinecke et al. (2023)
# [9] = Q6ZSR9, 5 cell line mix lysate, Kinobeads ε, ref Reinecke et al. (2023)
# [10] = PLK4, 5 cell line mix lysate, Kinobeads ε, ref Reinecke et al. (2023)
# [11] = 4 cell line mix lysate, Kinobeads y, ref Klaeger et al. (2017)
compound,measurement,setting,value
COc1cc(N2CCC(N3CCN(C)CC3)CC2)ccc1Nc1ncc(Cl)c(Nc2ccccc2P(C)(C)=O)n1 [Brigatinib],EC50,ERN1; [1],142 nM
same,pKDapp,ERN1; [1],6.94
same,Kd,"ERN1; ERN1, 5 cell line mix lysate, Kinobeads ε, ref Reinecke et al. (2023), read-out: KDapp",115 nM
same,EC50,LATS1; [2],3550 nM
same,pKDapp,LATS1; [2],5.55
same,Kd,"LATS1; LATS1, 5 cell line mix lysate, Kinobeads ε, ref Reinecke et al. (2023), read-out: KDapp",2790 nM
same,EC50,MARK3; [3],250 nM
same,pKDapp,MARK3; [3],6.71
same,Kd,"MARK3; MARK3, 5 cell line mix lysate, Kinobeads ε, ref Reinecke et al. (2023), read-out: KDapp",193 nM
same,Kd,AURKB; [4],1080 nM
same,EC50,AURKB; [5],1850 nM
same,pKDapp,AURKB; [5],5.97
same,EC50,STK10; [6],310 nM
same,pKDapp,STK10; [6],6.55
same,Kd,"STK10; STK10, 5 cell line mix lysate, Kinobeads ε, ref Reinecke et al. (2023), read-out: KDapp",283 nM
same,EC50,CHEK1; [7],70.5 nM
same,pKDapp,CHEK1; [7],7.24
same,Kd,CHEK1; [7],58.2 nM
same,Kd,"CHEK1; Kinobeads, ref Klaeger et al, 2017a, Reinecke et al, 2023a",70 nM
same,EC50,FLT3; [8],142 nM
same,pKDapp,FLT3; [8],7.12
same,Kd,"FLT3; FLT3, 5 cell line mix lysate, Kinobeads ε, ref Reinecke et al. (2023), read-out: KDapp",76.3 nM
same,Kd,AURKA; [4],224 nM
same,EC50,AURKA; [5],634 nM
same,pKDapp,AURKA; [5],6.65
same,EC50,Q6ZSR9; [9],296 nM
same,pKDapp,Q6ZSR9; [9],6.65
same,Kd,"Q6ZSR9; Q6ZSR9, 5 cell line mix lysate, Kinobeads ε, ref Reinecke et al. (2023), read-out: KDapp",225 nM
same,Kd,BMP2K; [4],999 nM
same,EC50,BMP2K; [5],1510 nM
same,pKDapp,BMP2K; [5],6.00
same,EC50,PLK4; [10],95.2 nM
same,pKDapp,PLK4; [10],7.31
same,Kd,"PLK4; PLK4, 5 cell line mix lysate, Kinobeads ε, ref Reinecke et al. (2023), read-out: KDapp",48.5 nM
same,Kd,SYK; [4],1570 nM
same,EC50,SYK; [5],1870 nM
same,pKDapp,SYK; [5],5.81
same,Kd,RET; [4],125 nM
same,EC50,RET; [5],283 nM
same,pKDapp,RET; [5],6.90
C[C@]12O[C@H](C[C@]1(O)CO)n1c3ccccc3c3c4c(c5c6ccccc6n2c5c31)CNC4=O [Lestaurtinib],EC50,"ERN1; ERN1, 4 cell line mix lysate, Kinobeads y, ref Klaeger et al. (2017)",[…]
same,EC50,"Q6ZSR9; Q6ZSR9, 4 cell line mix lysate, Kinobeads y, ref Klaeger et al. (2017)",105 nM
same,EC50,BMP2K; [11],323 nM
